Data taken from ChEMBL document CHEMBL5523682, “The formyl peptide receptors FPR1 and FPR2 as targets for inflammatory disorders: recent advances in the development of small-molecule agonists” (Eur J Med Chem, 2024).
One block for each compound: values may come before it. Where a SMILES comes first, the peptide text is derived from it. The star is where a group is joined. For = O=C*

Columns and labels:
Homo sapiens = species: Homo sapiens; assay: Selectivity ratio of EC50 for agonist activity at human FPR1 transfected in CHO cells to EC50 for agonist activity at human FPR2 transfected in CHO cells; assay type: cell-based
[1] = target: T1, N-formyl peptide receptor 2 (Homo sapiens, UniProt P25090); assay: Agonist activity at human FPR2 expressed in HL-60 cells assessed as inhibition of WKYMVM-induced calcium mobilization; assay type: functional, cell-based
T1 sequence (P25090 whole entry): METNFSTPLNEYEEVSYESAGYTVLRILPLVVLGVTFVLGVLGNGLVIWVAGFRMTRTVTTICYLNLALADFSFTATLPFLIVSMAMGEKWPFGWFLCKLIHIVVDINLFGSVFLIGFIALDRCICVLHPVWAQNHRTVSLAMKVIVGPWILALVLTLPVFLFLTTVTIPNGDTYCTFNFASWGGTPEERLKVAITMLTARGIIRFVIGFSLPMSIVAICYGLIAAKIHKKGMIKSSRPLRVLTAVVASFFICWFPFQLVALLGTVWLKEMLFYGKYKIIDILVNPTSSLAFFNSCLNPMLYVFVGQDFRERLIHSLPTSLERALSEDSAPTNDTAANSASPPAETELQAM

fMet-Leu-Phe receptor [2] = target: T2, fMet-Leu-Phe receptor (Homo sapiens, UniProt P21462); assay: Agonist activity at human FPR1 expressed in HL-60 cells assessed as increase in calcium mobilization by FLIPR analysis; assay type: functional, cell-based
T2 sequence (P21462 whole entry): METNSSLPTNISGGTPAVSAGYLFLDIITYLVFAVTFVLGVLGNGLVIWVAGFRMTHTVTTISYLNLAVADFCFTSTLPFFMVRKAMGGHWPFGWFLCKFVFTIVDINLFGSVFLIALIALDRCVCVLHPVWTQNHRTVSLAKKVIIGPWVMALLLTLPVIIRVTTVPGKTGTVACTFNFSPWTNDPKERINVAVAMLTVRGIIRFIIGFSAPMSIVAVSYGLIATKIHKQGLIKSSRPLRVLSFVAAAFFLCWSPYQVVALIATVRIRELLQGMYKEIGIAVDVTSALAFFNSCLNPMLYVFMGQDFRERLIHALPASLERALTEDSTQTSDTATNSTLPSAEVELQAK

[3] = target: T1, N-formyl peptide receptor 2; assay: Agonist activity at FPR2 (unknown origin) expressed in CHO cells by cAMP assay; assay type: functional, cell-based
fMet-Leu-Phe receptor [4] = target: T2, fMet-Leu-Phe receptor; assay: Agonist activity at FPR1 (unknown origin) in HEK293 cells; assay type: functional, cell-based
[5] = target: T1, N-formyl peptide receptor 2; assay: Agonist activity at FPR2 (unknown origin) in HEK293 cells; assay type: functional, cell-based
[6] = target: T1, N-formyl peptide receptor 2; assay: Agonist activity at human FPR2 expressed in CHO cells assessed as increase in calcium mobilization by Fluo-4 AM dye based fluorescence assay; assay type: functional, cell-based
[7] = target: T3, Formyl peptide receptor 2 (Mus musculus, UniProt O88536); assay: Agonist activity at mouse FPR2
T3 sequence (O88536 whole entry): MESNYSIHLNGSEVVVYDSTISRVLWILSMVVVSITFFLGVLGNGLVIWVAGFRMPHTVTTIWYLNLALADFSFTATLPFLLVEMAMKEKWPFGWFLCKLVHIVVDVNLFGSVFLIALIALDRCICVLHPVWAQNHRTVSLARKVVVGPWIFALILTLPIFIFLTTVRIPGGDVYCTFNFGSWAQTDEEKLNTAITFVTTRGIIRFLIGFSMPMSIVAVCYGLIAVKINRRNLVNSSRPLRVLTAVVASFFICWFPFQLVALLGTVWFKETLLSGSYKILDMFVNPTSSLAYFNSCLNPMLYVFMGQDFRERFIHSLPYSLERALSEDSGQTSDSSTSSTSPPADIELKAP

fMet-Leu-Phe receptor [8] = target: T2, fMet-Leu-Phe receptor; assay: Agonist activity at human FPR1 transfected in CHO cells by cAMP assay; assay type: functional, cell-based
[9] = target: T1, N-formyl peptide receptor 2; assay: Agonist activity at FPR2 (unknown origin) transfected in CHO cells by cAMP assay; assay type: functional, cell-based
fMet-Leu-Phe receptor [10] = target: T2, fMet-Leu-Phe receptor; assay: Agonist activity at FPR1 (unknown origin) expressed in CHO cells by cAMP assay; assay type: functional, cell-based
[11] = target: T1, N-formyl peptide receptor 2; assay: Agonist activity at human FPR2; assay type: functional

Compound: CS(=N)(=O)c1ccccc1-c1ccc(N2CC[C@@H](NC(=O)Nc3ccc(Cl)cc3F)C2=O)c(F)c1F (some centres undefined)
- Ratio EC50 (Homo sapiens): 82

Compound: H-AKKVFKRLEKLFSKIQNDK-OH
- EC50 [1]: 300 nM

- EC50 (fMet-Leu-Phe receptor [2]): 23 nM
Compound: COc1ccc(C2(CNC(=O)[C@@H](Cc3c[nH]c4ccccc34)NC(=O)Nc3ccc([N+](=O)[O-])cc3)CCCCC2)nc1

- EC50 [3]: 0.25 nM
Compound: COc1ccc([C@@H]2COC(=O)[C@@H]2NC(=O)Nc2ccc(Cl)cc2)cc1 (racemic)

Compound: COc1cc(F)c(-c2c(NC(=O)c3ccc(OC(F)F)cc3)c(=O)n(-c3cccc(OC(F)F)c3)n2C)c(F)c1
- Ratio EC50 (Homo sapiens): 1

- EC50 (fMet-Leu-Phe receptor [4]): 38 nM
- EC50 [5]: 3 nM
Compound: COc1ccc(-n2c(-c3ccccc3)cnc2NC(=O)c2ccc(OC(F)F)cc2)cc1

- EC50 [3]: 0.01 nM
Compound: COc1ccc([C@@H]2CN(CCO)C(=O)[C@H]2NC(=O)Nc2ccc(Cl)cc2)cc1

Compound: CP(C)(=O)c1ccccc1-c1ccc(N2CC[C@@H](NC(=O)Nc3ccc(Cl)cc3F)C2=O)c(F)c1F
- Ratio EC50 (Homo sapiens): 490

- EC50 [5]: 0.3 nM
Compound: CC(=O)CCCCc1nc(NC(=O)OCc2ccccc2C)co1

- EC50 [6]: 0.5 nM
Compound: CCC1(C(C)C)NC(=O)N(CC(=O)Nc2ccc(Br)cc2)C1=O (centres undefined)

- EC50 [7]: 280 nM
Compound: O=C(O)[C@@H]1C2CCC([C@@H]1C(=O)Nc1ccc(Br)cc1)C21CC1 (some centres undefined)

- EC50 (fMet-Leu-Phe receptor [4]): 200 nM
- EC50 [5]: 4 nM
Compound: COc1cc(F)c(-n2c(-c3ccccc3)cnc2NC(=O)c2ccc(OC(F)F)cc2)c(F)c1

Compound: CCP(=O)(CC)c1ccccc1-c1ccc(N2CC[C@@H](NC(=O)Nc3ccc(Cl)cc3F)C2=O)c(F)c1F
- Ratio EC50 (Homo sapiens): 350

- EC50 (fMet-Leu-Phe receptor [8]): > 10 nM
Compound: COc1cc(F)c(-c2c(NC(=O)c3ccc(OC(F)F)cc3)c(=O)n(-c3ccccn3)n2C)c(F)c1
- Ratio EC50 (Homo sapiens): > 630

Compound: COc1cc(F)c(-c2c(NC(=O)c3ccc(OC(F)F)cc3)c(=O)n(-c3cccc(-n4ccc(C)n4)n3)n2C)c(F)c1
- Ratio EC50 (Homo sapiens): 1

- EC50 (fMet-Leu-Phe receptor [8]): > 10 nM
Compound: COc1cc(-n2c(=O)c(NC(=O)c3ccc(OC(F)F)cc3)c(-c3c(F)cc(OC)cc3F)n2C)cc(C(F)(F)F)c1
- Ratio EC50 (Homo sapiens): > 1300

- EC50 [9]: 1400 nM
Compound: CCOC(=O)[C@H]1C2CCC([C@H]1C(=O)Nc1ccc(Br)cc1)C21CC1 (some centres undefined)

- EC50 (fMet-Leu-Phe receptor [2]): 4100 nM
Compound: COc1ccc(C2(CNC(=O)[C@H](Cc3c[nH]c4ccccc34)NC(=O)Nc3ccc([N+](=O)[O-])cc3)CCCCC2)nc1

- EC50 (fMet-Leu-Phe receptor [2]): 110 nM
Compound: COc1ccc(CC(Cc2ccc3c(c2)OCO3)NC(=O)Nc2ccc(Cl)cc2)cc1 (centres undefined)

- EC50 [9]: 120 nM
Compound: O=C(CN1C(=O)C2C(C1=O)C1CCC2C12CC2)Nc1ccc(Br)cc1 (centres undefined)

- EC50 [3]: 0.09 nM
Compound: COc1ccc([C@H]2CN(Cc3cnn(S(C)(=O)=O)c3)CC[C@@H]2NC(=O)Nc2ccc(Cl)cc2)cc1 (racemic)

- EC50 [3]: < 1 nM
- EC50 (fMet-Leu-Phe receptor [10]): 1000 nM
Compound: COCCN1CC[C@H](NC(=O)Nc2ccc(Cl)cc2)[C@@H](c2c(F)cc(OC)cc2F)C1 (racemic)

- EC50 [3]: 40 nM
Compound: Cc1ccc(NC(=O)N[C@H]2CCCN(c3ccc(-c4ccccc4C(N)=O)cc3)C2=O)cc1

- EC50 [7]: 15 nM
Compound: CSc1ccc(NC(=O)Nc2ccc3c(c2)C(=O)N(CCCN)C(C)C3)cc1 (centres undefined)

- EC50 [3]: < 1 nM
- EC50 (fMet-Leu-Phe receptor [10]): 1000 nM
Compound: COc1cc(F)c([C@H]2CC(=O)NC[C@@H]2NC(=O)Nc2ccc(Cl)cc2)c(F)c1 (racemic)

- EC50 [1]: 6.9 nM
Compound: CC[C@H](C)[C@H](NC(=O)[C@H](CC(N)=O)NC(=O)[C@@H](NC(=O)[C@H](CCSC)NC=O)[C@@H](C)O)C(=O)N[C@@H](CCCNC(=N)N)C(=O)N[C@@H](CCCCN)C(=O)N[C@@H](CO)C(=O)N[C@@H](Cc1cnc[nH]1)C(=O)N1CCC[C@H]1C(=O)N[C@@H](CC(C)C)C(=O)N[C@@H](CCSC)C(=O)N[C@@H](CCCCN)C(=O)N[C@H](C(=O)N[C@H](C(=O)N[C@@H](CC(N)=O)C(=O)O)[C@@H](C)CC)[C@@H](C)CC (For-MTNIRKSHPLMKIIN-OH)

Compound: O=C(Nc1ccc(Cl)cc1F)N[C@@H]1CCN(c2ccc(-c3ccccc3F)c(F)c2F)C1=O
- Ratio EC50 (Homo sapiens): 12

- EC50 [11]: 1.2 nM
Compound: CC/C=C\C[C@@H](O)/C=C/C=C\C[C@@H](O)/C=C/C=C/C=C\[C@@H](O)CCC(=O)O
